Measurements as given in ChEMBL document CHEMBL4138164, “Thieno[2,3-b]pyridine derivatives are potent anti-platelet drugs, inhibiting platelet activation, aggregation and showing synergy with aspirin” (Eur J Med Chem, 2018).
The source made the active and inactive calls. No cut-off for these calls is given here.

Experiments:
[1] = target: P2Y purinoceptor 12 (Homo sapiens) (UniProt Q9H244); test: Antagonist activity at P2Y12 in human platelet rich plasma assessed as inhibition of ADP-induced platelet aggregation at 10 uM pretreated for 30 mins followed by ADP addition measured after 5 mins by light transmission aggregometric analysis; format: functional
P2Y purinoceptor 12 (Homo sapiens), sequence (Q9H244 whole entry): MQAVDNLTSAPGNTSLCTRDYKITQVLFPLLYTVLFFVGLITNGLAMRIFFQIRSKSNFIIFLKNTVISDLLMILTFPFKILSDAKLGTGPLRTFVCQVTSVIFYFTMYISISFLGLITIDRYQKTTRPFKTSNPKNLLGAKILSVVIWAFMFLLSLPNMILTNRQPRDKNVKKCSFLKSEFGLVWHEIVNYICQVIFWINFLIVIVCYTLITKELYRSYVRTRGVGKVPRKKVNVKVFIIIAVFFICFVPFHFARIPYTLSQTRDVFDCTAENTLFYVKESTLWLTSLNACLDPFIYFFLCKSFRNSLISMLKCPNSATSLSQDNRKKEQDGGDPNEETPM

[2] = target: P2Y purinoceptor 12 (Homo sapiens) (UniProt Q9H244); test: Synergistic inhibition of P2Y12 in human platelet rich plasma assessed as inhibition of ADP-induced platelet aggregation at 10 uM pretreated for 30 mins followed by ADP addition measured after 5 mins in presence of aspirin by light transmission aggregometric analysis; format: functional
Platelet = test: Cytotoxicity against platelet in human platelet rich plasma at 100 uM after 48 to 72 hrs; format: cell-based
[3] = target: P2Y purinoceptor 12 (Homo sapiens) (UniProt Q9H244); test: Antagonist activity at P2Y12 in human whole blood assessed as inhibition of ADP-induced platelet-aggregation at 10 uM pretreated for 30 mins followed by ADP addition measured after 5 mins by FITC staining-based flow cytometric analysis; format: functional
[4] = target: P2Y purinoceptor 12 (Homo sapiens) (UniProt Q9H244); test: Antagonist activity at P2Y12 in human platelet rich plasma assessed as inhibition of collagen-induced platelet aggregation at 10 uM pretreated for 30 mins followed by collagen addition measured after 5 mins by light transmission aggregometric analysis; format: functional
[5] = target: P2Y purinoceptor 12 (Homo sapiens) (UniProt Q9H244); test: Antagonist activity at P2Y12 in human platelet rich plasma assessed as inhibition of ADP-induced CD62P expression at 10 uM pretreated for 30 mins followed by ADP addition measured after 5 mins by flow cytometric analysis; format: functional
[6] = target: P2Y purinoceptor 12 (Homo sapiens) (UniProt Q9H244); test: Antagonist activity at P2Y12 in human platelet rich plasma assessed as inhibition of ADP-induced PAC1 expression at 10 uM pretreated for 30 mins followed by ADP addition measured after 5 mins by flow cytometric analysis; format: functional

| SMILES | inhibition [1] | inhibition [2] | inhibition [3] | inhibition [4] | inhibition [5] | inhibition [6] | Activity (Platelet) |
| --- | --- | --- | --- | --- | --- | --- | --- |
| Nc1c(C(=O)Nc2ccccc2)sc2nc3c(cc12)CCCCCC3 | Active | Active | Active | Active | Active | Active | Non-Toxic |
| COc1ccc(NC(=O)c2sc3nc4c(cc3c2N)CCCCCC4)cc1 | Active | inactive | Active | Active | Active | Active | Non-Toxic |
| COC(=O)[C@H](c1ccccc1Cl)N1CCc2sccc2C1 | Active | – | Active | inactive | – | – | – |
| CC(=O)Oc1ccccc1C(=O)O | Active | – | – | – | – | – | – |
| Cc1c(Br)cccc1NC(=O)c1sc2nc3c(cc2c1N)CCCCCC3 | Active | inactive | Active | Active | Active | Active | Non-Toxic |

Now from value to molecule, other results behind:

| inhibition [1] | inhibition [2] | inhibition [3] | inhibition [4] | inhibition [5] | inhibition [6] | SMILES | Activity (Platelet) |
| --- | --- | --- | --- | --- | --- | --- | --- |
| Active | Active | Active | Active | Active | Active | Nc1c(C(=O)Nc2ccccc2Cl)sc2nc3c(cc12)C(=O)CCC3 | Non-Toxic |
| Active | Active | Active | Active | Active | Active | Nc1c(C(=O)Nc2cccc(Cl)c2)sc2nc3c(cc12)C(=O)CCC3 | Non-Toxic |
| Active | Active | Active | Active | Active | Active | Cc1c(Cl)cccc1NC(=O)c1sc2nc3c(cc2c1N)CCCCC3 | Non-Toxic |
